The source of these data is patent US11964052B2, “Lipid compounds and lipid nanoparticle compositions” (SUZHOU ABOGEN BIOSCIENCES CO., LTD., priority 2021, dated 2024).

Holding throughout (assay type): physicochemical
Data set [1] can be described thus: Lipid nanoparticle size and polydispersity by dynamic light scattering (Malvern Zetasizer Nano ZS). Conditions: LNP of cationic lipid/DSPC/cholesterol/PEG-lipid 50:10:38.5:1.5 with mRNA. As to the method: (§1) Briefly, a cationic lipid provided herein, DSPC, cholesterol, and PEG-lipid were solubilized in ethanol at a molar ratio of 50:10:38.5:1.5, and mRNA were diluted in 10 to 50 mM citrate buffer, pH=4. The LNPs were prepared at a total lipid to mRNA weight ratio of approximately 10:1 to 30:1 by mixing the ethanolic lipid solution with the aqueous mRNA solution at a volume ratio of 1:3 using a microfluidic apparatus, total flow rate ranging from 9-30 mL/min. Ethanol were thereby removed and replaced by DPBS using dialysis. Finally, the lipid nanoparticles were filtered through a 0.2 μm sterile filter.
(§2) Lipid nanoparticle size were determined by dynamic light scattering using a Malvern Zetasizer Nano ZS (Malvern UK) using a 173° backscatter detection mode. The encapsulation efficiency of lipid nanoparticles were determined using a Quant-it Ribogreen RNA quantification assay kit (Thermo Fisher Scientific, UK) according to the manufacturer's instructions.

The nature of data set [2]: Encapsulation efficiency of lipid nanoparticles, Quant-it Ribogreen RNA quantification assay. To be noted: LNP with mRNA. How it is done: as §1, §2
The nature of data set [3]: Apparent pKa of LNP formulations, TNS fluorescence assay. Conditions: LNP cationic lipid/DSPC/cholesterol/DMG-PEG 50/10/38.5/1.5 mol %, pH 3 to 9. As to the method: As reported in literature, the apparent pKa of LNP formulations correlates with the delivery efficiency of LNPs for nucleic acids in vivo. The apparent pKa of each formulation was determined using an assay based on fluorescence of 2-(p-toluidino)-6-napthalene sulfonic acid (TNS). LNP formulations comprising of cationic lipid/DSPC/cholesterol/DMG-PEG (50/10/38.5/1.5 mol %) in PBS were prepared as described above. TNS was prepared as a 300 uM stock solution in distilled water. LNP formulations were diluted to 0.1 mg/ml total lipid in 3 mL of buffered solutions containing 50 mM sodium citrate, 50 mM sodium phosphate, 50 mM sodium borate, and 30 mM sodium chloride where the pH ranged from 3 to 9. An aliquot of the TNS solution was added to give a final concentration of 0.1 mg/ml and following vortex mixing fluorescence intensity was measured at room temperature in a Molecular Devices Spectramax iD3 spectrometer using excitation and mission wavelengths of 325 nm and 435 nm. A sigmoidal best fit analysis was applied to the fluorescence data and the pKa value was measured as the pH giving rise to half-maximal fluorescent intensity.

In the case of `CCCCCCCCCCCCOCC(CN(CCO)C1CCC1)OCCCCCCCCCCCC` (stereo not drawn) [Compound 1], in data set [1], the polydispersity stood at 0.12 and the “size (nm)” value is 72.4 nm. Moreover, the “Encapsulation Efficiency” value in data set [2] is 96.3%. Further, in data set [3], the “Apparant Pka” value is 5.902.
The like results for `CCCCCCCCCCCCOCC(CN(CCO)C1CCC1)OC(=O)CCCCCCCCCCC` (stereo not drawn) [Compound 2] were, in that order, 0.094, 69.05 nm, 94.5% and 5.177.
Consider `CCCCCCCCCCCCOCC(CN(CCO)C1CCC1)OC(=O)CCCCC` (stereo not drawn) [Compound 3], for which, in data set [1], the polydispersity is on record as 0.124 and the “size (nm)” value was found to be 105.6 nm. Moreover, the “Encapsulation Efficiency” value in data set [2] was 92.8%.
As to `CCCCCCCCCCCCOCC(CN(CCO)C1CCC1)OCCCCCC(=O)OCC(CCCCCC)CCCCCCCC` (stereo not drawn) [Compound 4], in data set [1], the polydispersity was determined as 0.2 and the “size (nm)” value was found to be 54.52 nm. For the same compound, the “Encapsulation Efficiency” value in data set [2] was 94.6%. For the same compound, the “Apparant Pka” value in data set [3] stood at 5.083.
Take `CCCCCCCCCCCCOCC(CN(C)CCN(CCO)C1CCCC1)OCCCCCC` (stereo not drawn) [Compound 5]: in data set [1], the polydispersity stood at 0.384 and the “size (nm)” value is 78.36 nm. In addition, in data set [2], the “Encapsulation Efficiency” value turned out to be 92.4%. Also, in data set [3], the “Apparant Pka” value came to 7.315.
The like results for `CCCCCCCCCCCCOCC(CN(C)CCN(CCO)C1CCCCC1)OCCCCCCCCCCCC` (stereo not drawn) [Compound 6] were, in that order, 0.241, 126.4 nm, 93.4% and 7.035.
Taken in the same sequence, the figures for `CCCCCCCCCCCCOCC(O)CN(CCCCCC(=O)OCC(CCCCCC)CCCCCCCC)CCN(C)C` (stereo not drawn) [Compound 7] were 0.063, 85.46 nm, 96.7% and 8.7.
The like results for `CCCCCCCCCCCCOCC(O)CN(CCCCCC(=O)OCC(CCCCCC)CCCCCCCC)CCN1CCCCC1` (stereo not drawn) [Compound 8] were, in that order, 0.156, 102.9 nm, 88.2% and 7.327.
As for `CCCCCCCCCCCCOCC(CN(CCCCCC(=O)OCC(CCCCCC)CCCCCCCC)CCN1CCCCC1)OC(C)=O` (stereo not drawn) [Compound 9], in data set [1], the polydispersity came to 0.144 and the “size (nm)” value came out at 70.97 nm. In addition, the “Encapsulation Efficiency” value in data set [2] is 90.8%.
Taken in the same sequence, the figures for `CCCCCCCCCCCCOCC(O)CN(CCCCCC(=O)OCC(CCCCCC)CCCCCCCC)CCN1CCCC1` (stereo not drawn) [Compound 10] were 0.356, 84.22 nm and 94.8%.
Turning to `CCCCCCCCCCCCOCC(O)CN(CCCCCC(=O)OCC(CCCCCC)CCCCCCCC)CCN(CC)CC` (stereo not drawn) [Compound 11], in data set [1], the polydispersity is on record as 0.196 and the “size (nm)” value is reported as 77.98 nm. Moreover, in data set [2], the “Encapsulation Efficiency” value is on record as 82.2%. The “Apparant Pka” value in data set [3] is 7.701.
The like results for `CCCCCCCCCCCCOCC(O)CN(CCO)CCCCCC(=O)OCC(CCCCCC)CCCCCCCC` (stereo not drawn) [Compound 13] were, in that order, 0.128, 61.3 nm, 94.2% and 7.089.
Taken in the same sequence, the figures for `CCCCCCCCCCCCOCC(CN(CCO)CCCCCC(=O)OCC(CCCCCC)CCCCCCCC)OC(=O)CCCCC` (stereo not drawn) [Compound 14] were 0.4, 56.31 nm, 86.1% and 4.536.
The like results for `CCCCCCCCCCCCOCC(CN(CCCCCC(=O)OCC(CCCCCC)CCCCCCCC)CCN1CCCCC1)OC(=O)CCCCC` (stereo not drawn) [Compound 15] were, in that order, 0.139, 62.11 nm, 93.5% and 5.875.
Take `CCCCCCCCCCCCOCC(CN(CCCCCC)CCN(CCO)C1CCC1)OCCCCCCCCCCCC` (stereo not drawn) [Compound 16]: in data set [1], the polydispersity is recorded as 0.060 and the “size (nm)” value is 74.31 nm. In data set [2], the “Encapsulation Efficiency” value stood at 89.8%.
Turning to `CCCCCCCCCCCCOCC(CN(CCCCCCCCCCCC)CCN(CCO)C1CCC1)OCCCCCCCCCCCC` (stereo not drawn) [Compound 17], in data set [1], the polydispersity was determined as 0.186 and the “size (nm)” value was determined as 79.43 nm. Also, the “Encapsulation Efficiency” value in data set [2] is 92.8%. In data set [3], the “Apparant Pka” value turned out to be 5.835.
Regarding `CCCCCCCCCCCCOCC(CN(CCO)CCCCCC(=O)OCC(CCCCCC)CCCCCCCC)OC(C)=O` (stereo not drawn) [Compound 18], in data set [1], the polydispersity is 0.17 and the “size (nm)” value is 65.06 nm. The “Encapsulation Efficiency” value in data set [2] stood at 90.6%. For the same compound, the “Apparant Pka” value in data set [3] is listed as 4.916.
As to `CCCCCCCCCCCCOCC(CN(CCO)CCCCCC(=O)OCC(CCCCCC)CCCCCCCC)OC(=O)CC` (stereo not drawn) [Compound 19], in data set [1], the polydispersity was 0.156 and the “size (nm)” value was 117.5 nm. For the same compound, the “Encapsulation Efficiency” value in data set [2] worked out at 88.5%. Besides, the “Apparant Pka” value in data set [3] stood at 4.957.
The like results for `CCCCCCCCCCCCOCC(CN(CCCCCC(=O)OCC(CCCCCC)CCCCCCCC)CCN(CCO)C1CCC1)OC(C)=O` (stereo not drawn) [Compound 20] were, in that order, 0.145, 67.7 nm, 90.7% and 5.96.
Turning to `CCCCCCCCCCCCOCC(CN(CCCCCC(=O)OCC(CCCCCC)CCCCCCCC)CCN(CCO)C1CCCCC1)OCCCCCC` (stereo not drawn) [Compound 25], in data set [1], the polydispersity is given as 0.112 and the “size (nm)” value is reported as 58.01 nm. In addition, the “Encapsulation Efficiency” value in data set [2] stood at 94.70%.
Regarding `CCCCCCCCCCCCOCC(CN(C)CCN(CCO)C1CCC1)OC(=O)CCCC` (stereo not drawn) [Compound 40], in data set [1], the polydispersity stood at 0.326 and the “size (nm)” value is listed as 230 nm. The “Encapsulation Efficiency” value in data set [2] worked out at 36.4%.
Taken in the same sequence, the figures for `CCCCCCCCC(CCCCCCCC)CNC(=O)CCOCC(CN(C)CCN(CCO)C1CCCCC1)OCCC(=O)NCC(CCCCCCCC)CCCCCCCC` (stereo not drawn) [Compound 52] were 0.14, 66.03 nm and 96.5%.
On to `CCCCCCCCC(CCCCCCCC)CNC(=O)CCOCC(CN(C)CCN(CCO)C1CCCCCC1)OCCC(=O)NCC(CCCCCCCC)CCCCCCCC` (stereo not drawn) [Compound 58], for which, in data set [1], the polydispersity amounted to 0.032 and the “size (nm)” value is recorded as 56.37 nm. Besides, in data set [2], the “Encapsulation Efficiency” value amounted to 97.3%.
The like results for `CCCCCCC(CCCCCC)COC(=O)CCCCCN(CCN1CCC(O)C1)CC(COC(=O)CCCCC)OC(=O)CCCCC` (stereo not drawn) [Compound 59] were, in that order, 0.049, 94.89 nm and 96.1%.
Taken in the same sequence, the figures for `CCCCC/C=C\C/C=C\CCCCCCCC(=O)OCC(CN(C)CCN(CCO)C1CCC1)OC(=O)CCCCCCC/C=C\C/C=C\CCCCC` (stereo not drawn) [Compound 64] were 0.075, 73.8 nm and 91.6%.
Taken in the same sequence, the figures for `CCCCCCCCC(CCCCCCCC)COC(=O)CCOCC(CN(C)CCN(CCO)C1CCCCC1)OCCC(=O)OCC(CCCCCCCC)CCCCCCCC` (stereo not drawn) [Compound 72] were 0.055, 81.89 nm and 95.22%.
On to `CCCCCCCCCCCCCCCC(=O)OCC(CCCCN(CCO)C1CCCCC1)COC(=O)CC(CCCCCC)CCCCCCCC` (stereo not drawn) [Compound 86], for which, in data set [1], the polydispersity is 0.03 and the “size (nm)” value is listed as 73.58 nm. Also, the “Encapsulation Efficiency” value in data set [2] is 92.81%.
The like results for `CCCCCCCCCCC(=O)OCC(CCCCN(CCO)C1CCCCCC1)COC(=O)CC(CCCCCC)CCCCCCCC` (stereo not drawn) [Compound 92] were, in that order, 0.051, 70.85 nm and 90.25%.
Take `CCCCCCCCC(CCCCCC)COC(=O)CCOCC(CN(CCCCCC)CCN(CCO)C1CCCCCC1)OCCC(=O)OCC(CCCCCC)CCCCCCCC` (stereo not drawn) [Compound 107]: in data set [1], the polydispersity came out at 0.067 and the “size (nm)” value is recorded as 61.18 nm. In addition, the “Encapsulation Efficiency” value in data set [2] stood at 93.66%.
As for `CCCCCCCCCC(CCCCC)COC(=O)CCOCC(CN(CCO)C1CCC1)OCCC(=O)OCC(CCCCCC)CCCCCCCC` (stereo not drawn) [Compound 108], in data set [1], the polydispersity came out at 0.097 and the “size (nm)” value is on record as 47.87 nm. In addition, in data set [2], the “Encapsulation Efficiency” value was found to be 92.04%.
